Source: ChEMBL document CHEMBL1201862, “PubChem BioAssay data set” (2004)
Active and inactive are the calls of the source.

Legend:
Leucine aminopeptidase = target: T1, Leucine aminopeptidase (Plasmodium falciparum 3D7, UniProt Q8IL11); test: P. falciparum M17LAP inhibitors, primary screen, biochemical, fluorogenic H-Leu-NHMec substrate, 1536-well (AID 1619); assay type: functional
T1 sequence (Q8IL11 whole entry): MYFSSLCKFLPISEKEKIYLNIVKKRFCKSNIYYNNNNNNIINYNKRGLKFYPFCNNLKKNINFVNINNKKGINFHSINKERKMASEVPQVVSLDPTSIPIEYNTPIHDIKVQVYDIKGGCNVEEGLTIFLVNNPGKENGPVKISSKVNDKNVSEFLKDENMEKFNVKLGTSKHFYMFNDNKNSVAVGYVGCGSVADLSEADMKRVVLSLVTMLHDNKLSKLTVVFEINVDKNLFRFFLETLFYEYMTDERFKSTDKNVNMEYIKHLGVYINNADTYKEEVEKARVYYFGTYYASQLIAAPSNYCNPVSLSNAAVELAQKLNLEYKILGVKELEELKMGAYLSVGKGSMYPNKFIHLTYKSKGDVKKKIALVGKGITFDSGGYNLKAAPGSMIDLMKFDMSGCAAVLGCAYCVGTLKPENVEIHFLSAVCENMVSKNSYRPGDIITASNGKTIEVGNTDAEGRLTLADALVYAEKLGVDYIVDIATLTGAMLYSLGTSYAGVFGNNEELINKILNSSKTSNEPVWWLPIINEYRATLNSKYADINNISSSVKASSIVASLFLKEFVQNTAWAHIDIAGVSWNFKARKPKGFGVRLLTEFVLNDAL

[1] = THP-1 cell cytotoxicity, dose response, cytotoxicity control for non-replicating M. tuberculosis project (AID 489025); assay type: functional
[2] = HepG2 cell cytotoxicity, dose response, cytotoxicity control for non-replicating M. tuberculosis project (AID 489018); assay type: functional; settings: Mycobacterium tuberculosis
[3] = Vero E6 cell cytotoxicity, dose response, cytotoxicity control for non-replicating M. tuberculosis project, secondary assay (AID 492998); assay type: functional, VeroE6; settings: Vero C1008
cells = assay type: functional
H9c2 = test: cells; assay type: functional, cell-based; settings: Rattus norvegicus, H9c2, Myocardium;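 note: confirmatory concentration-response retest of ultra-high-throughput screening hits for modulation of myocardial damage; cell death induced by hydrogen peroxide oxidative stress; compound pretreatment for 60 min then peroxide exposure for 2 h; potency is for protecting the cells against peroxide damage rather than for killing them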
Genome polyprotein = Genome polyprotein (dengue virus type 2, UniProt P29990); test: Dengue-2 NS5 methyltransferase inhibitors, primary screen, biochemical, confirmation dose response (AID 588689); assay type: functional
Genome polyprotein, sequence (P29990 2492-3391 limits assumed): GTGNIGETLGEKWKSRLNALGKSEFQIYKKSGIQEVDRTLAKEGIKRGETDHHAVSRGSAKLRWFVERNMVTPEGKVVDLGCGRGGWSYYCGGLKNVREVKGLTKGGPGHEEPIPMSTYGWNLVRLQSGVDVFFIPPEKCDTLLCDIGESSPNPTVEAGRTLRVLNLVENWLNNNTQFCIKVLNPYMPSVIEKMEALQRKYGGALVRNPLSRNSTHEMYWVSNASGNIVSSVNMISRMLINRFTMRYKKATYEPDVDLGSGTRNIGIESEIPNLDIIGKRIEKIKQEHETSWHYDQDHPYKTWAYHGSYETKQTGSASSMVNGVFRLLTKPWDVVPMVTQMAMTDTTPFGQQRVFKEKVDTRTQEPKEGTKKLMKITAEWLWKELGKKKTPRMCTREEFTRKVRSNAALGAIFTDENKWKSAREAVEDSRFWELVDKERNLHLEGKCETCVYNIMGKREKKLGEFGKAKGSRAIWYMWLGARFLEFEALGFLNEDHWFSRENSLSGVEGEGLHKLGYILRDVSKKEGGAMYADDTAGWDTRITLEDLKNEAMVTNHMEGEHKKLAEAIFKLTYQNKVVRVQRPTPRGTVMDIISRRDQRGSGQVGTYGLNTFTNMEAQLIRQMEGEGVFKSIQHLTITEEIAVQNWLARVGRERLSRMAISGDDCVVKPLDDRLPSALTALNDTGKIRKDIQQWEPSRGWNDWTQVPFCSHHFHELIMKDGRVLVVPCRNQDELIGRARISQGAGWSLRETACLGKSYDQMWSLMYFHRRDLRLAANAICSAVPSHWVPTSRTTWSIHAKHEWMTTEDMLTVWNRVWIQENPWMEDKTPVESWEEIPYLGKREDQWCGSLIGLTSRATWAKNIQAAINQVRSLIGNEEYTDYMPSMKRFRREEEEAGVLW

[4] = NIH-3T3 fibroblast cytotoxicity, dose response, cytotoxicity control, cell-based, fluorescence, Alamar Blue, secondary assay (AID 2327); assay type: functional;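 note: NIH-3T3 mouse fibroblasts cultured with fluconazole at 8 µg/mL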
[5] = C. albicans growth with fluconazole, confirmation, fluorescence, retest (AID 2467); assay type: functional, cell-based
[6] = microbe, parasite or virus in culture; assay type: functional; settings: Mycobacterium tuberculosis
Estrogen receptor beta [7] = target: T2, Estrogen receptor beta (Homo sapiens, UniProt Q92731); test: ERβ–SRC-3 coactivator interaction inhibitors, confirmation, orthogonal assay, biochemical, ELISA, streptavidin-HRP readout (AID 1060)
T2 sequence (Q92731 whole entry): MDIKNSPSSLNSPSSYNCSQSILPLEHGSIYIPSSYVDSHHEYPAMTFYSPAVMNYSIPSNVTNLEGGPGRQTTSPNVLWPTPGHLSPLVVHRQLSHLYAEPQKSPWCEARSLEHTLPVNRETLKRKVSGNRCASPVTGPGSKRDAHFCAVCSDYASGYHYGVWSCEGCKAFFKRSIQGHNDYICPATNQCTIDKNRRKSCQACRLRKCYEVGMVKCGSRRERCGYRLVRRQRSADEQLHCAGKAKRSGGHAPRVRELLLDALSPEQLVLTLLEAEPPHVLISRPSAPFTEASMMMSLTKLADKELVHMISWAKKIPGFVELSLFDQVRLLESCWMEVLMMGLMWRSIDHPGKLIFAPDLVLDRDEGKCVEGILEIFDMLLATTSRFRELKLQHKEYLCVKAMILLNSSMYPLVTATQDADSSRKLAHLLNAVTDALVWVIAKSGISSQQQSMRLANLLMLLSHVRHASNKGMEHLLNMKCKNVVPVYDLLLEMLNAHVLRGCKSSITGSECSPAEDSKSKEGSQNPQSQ

[8] = target: T3, DNA repair and recombination protein RAD54-like (Homo sapiens, UniProt Q92698); test: inhibitors of human RAD54 branch migration, confirmation, biochemical, fluorescence, cherry-picked samples, dose series (AID 651657); assay type: functional
T3 sequence (Q92698 whole entry): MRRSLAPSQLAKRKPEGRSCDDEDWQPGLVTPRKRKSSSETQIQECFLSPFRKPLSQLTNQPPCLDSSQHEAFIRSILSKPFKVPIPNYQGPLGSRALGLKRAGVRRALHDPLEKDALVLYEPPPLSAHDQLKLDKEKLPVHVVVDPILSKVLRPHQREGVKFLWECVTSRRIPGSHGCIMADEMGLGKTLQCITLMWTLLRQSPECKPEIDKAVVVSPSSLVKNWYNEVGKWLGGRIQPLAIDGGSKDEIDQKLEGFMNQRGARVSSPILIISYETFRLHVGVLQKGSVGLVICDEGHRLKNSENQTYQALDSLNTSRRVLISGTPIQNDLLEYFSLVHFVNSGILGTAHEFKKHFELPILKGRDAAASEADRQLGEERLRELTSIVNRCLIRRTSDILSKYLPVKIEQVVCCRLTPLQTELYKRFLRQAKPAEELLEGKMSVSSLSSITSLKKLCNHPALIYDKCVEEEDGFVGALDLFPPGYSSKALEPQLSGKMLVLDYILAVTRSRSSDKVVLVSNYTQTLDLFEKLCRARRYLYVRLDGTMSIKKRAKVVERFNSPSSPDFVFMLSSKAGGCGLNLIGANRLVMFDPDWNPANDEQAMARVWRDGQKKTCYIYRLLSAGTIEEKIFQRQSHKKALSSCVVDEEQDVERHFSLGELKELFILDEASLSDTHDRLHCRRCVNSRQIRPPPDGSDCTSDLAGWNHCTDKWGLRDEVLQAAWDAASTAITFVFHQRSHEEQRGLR

[9] = target: T4, DNA repair protein RAD52 homolog (Homo sapiens, UniProt P43351); assay type: functional, biochemical
T4 sequence (P43351 whole entry): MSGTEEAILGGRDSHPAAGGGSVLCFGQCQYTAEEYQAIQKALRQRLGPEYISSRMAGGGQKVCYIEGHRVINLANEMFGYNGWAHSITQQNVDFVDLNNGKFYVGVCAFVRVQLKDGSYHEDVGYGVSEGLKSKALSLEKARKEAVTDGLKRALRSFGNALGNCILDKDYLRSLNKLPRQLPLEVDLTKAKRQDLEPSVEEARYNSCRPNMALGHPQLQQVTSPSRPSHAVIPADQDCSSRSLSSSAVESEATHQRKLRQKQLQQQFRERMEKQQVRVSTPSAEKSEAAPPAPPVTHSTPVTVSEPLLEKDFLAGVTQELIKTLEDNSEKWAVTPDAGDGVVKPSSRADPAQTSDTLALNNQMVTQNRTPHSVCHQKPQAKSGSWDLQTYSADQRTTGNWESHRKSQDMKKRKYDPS

[10] = target: T5, Histone-lysine N-methyltransferase NSD2 (Homo sapiens, UniProt O96028); assay type: biochemical
T5 sequence (O96028 whole entry): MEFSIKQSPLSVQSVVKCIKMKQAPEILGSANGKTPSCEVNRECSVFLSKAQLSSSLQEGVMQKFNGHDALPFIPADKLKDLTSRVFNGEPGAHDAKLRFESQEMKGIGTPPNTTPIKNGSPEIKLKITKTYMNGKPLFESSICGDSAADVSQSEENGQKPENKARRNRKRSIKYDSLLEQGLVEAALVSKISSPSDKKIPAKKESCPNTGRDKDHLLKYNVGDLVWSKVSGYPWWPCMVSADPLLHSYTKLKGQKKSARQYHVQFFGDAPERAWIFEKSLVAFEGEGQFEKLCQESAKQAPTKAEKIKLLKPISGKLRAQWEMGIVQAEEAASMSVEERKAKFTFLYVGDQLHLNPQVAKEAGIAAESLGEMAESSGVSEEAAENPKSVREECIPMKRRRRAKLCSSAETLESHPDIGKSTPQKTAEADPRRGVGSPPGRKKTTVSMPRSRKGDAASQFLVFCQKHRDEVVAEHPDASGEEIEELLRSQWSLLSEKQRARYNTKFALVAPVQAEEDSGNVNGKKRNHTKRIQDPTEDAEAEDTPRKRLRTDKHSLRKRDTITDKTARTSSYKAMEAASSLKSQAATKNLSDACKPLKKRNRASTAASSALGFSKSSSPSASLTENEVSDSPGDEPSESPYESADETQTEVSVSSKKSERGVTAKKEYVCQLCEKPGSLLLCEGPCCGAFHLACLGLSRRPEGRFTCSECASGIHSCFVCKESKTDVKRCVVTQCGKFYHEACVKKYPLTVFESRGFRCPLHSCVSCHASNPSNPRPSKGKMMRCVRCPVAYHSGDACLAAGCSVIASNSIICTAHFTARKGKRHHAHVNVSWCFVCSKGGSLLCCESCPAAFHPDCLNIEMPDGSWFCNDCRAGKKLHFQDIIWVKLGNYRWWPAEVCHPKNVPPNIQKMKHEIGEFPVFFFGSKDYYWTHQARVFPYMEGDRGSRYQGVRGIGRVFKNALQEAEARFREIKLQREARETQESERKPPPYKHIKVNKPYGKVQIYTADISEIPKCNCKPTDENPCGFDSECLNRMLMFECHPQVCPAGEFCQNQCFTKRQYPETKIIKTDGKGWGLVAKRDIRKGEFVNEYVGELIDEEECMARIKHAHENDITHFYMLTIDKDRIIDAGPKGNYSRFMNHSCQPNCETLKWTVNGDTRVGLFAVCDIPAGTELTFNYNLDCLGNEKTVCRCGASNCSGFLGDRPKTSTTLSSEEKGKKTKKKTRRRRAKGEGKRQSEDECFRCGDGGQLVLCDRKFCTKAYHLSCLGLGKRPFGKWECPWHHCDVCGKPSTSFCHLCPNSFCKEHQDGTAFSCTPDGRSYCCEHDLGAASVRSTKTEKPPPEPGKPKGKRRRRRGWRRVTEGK

Estrogen receptor beta [11] = target: T2, Estrogen receptor beta
[12] = Concentration-dependent survival of SW480 colon cancer line, luminescence detection with CellTiter-Glo, half-maximal inhibitory concentration (AID 1117338); assay type: functional
[13] = RKO cell viability reduction, dose response, CellTiter-Glo luminescence (AID 1117322); assay type: functional
[14] = cytotoxicity toward HCT116 cells – cell-based, CellTiter-Glo luminescence, IC50, dose response (AID 1117332); assay type: functional; settings: HCT-116
[15] = SNU-C1 cell viability reduction, dose response, CellTiter-Glo luminescence (AID 1117323); assay type: functional, cell-based
[16] = cytotoxicity toward Colo320 cells – cell-based, CellTiter-Glo luminescence, IC50, dose response (AID 1117334); assay type: functional; settings: COLO 320
[17] = cytotoxicity toward HT-29 cells – cell-based, CellTiter-Glo luminescence, IC50, dose response (AID 1117330); assay type: functional
[18] = CellTiter-Glo luminescent dose response of DLD-1 viability loss (AID 1117352); assay type: functional
[19] = HCT116 cell viability decrease, GSK3B pretreatment – CellTiter-Glo, IC50, dose response (AID 1117339); assay type: functional; settings: HCT-116
[20] = A549 cell cytotoxicity, dose response, cytotoxicity control, plate reader, cherry-pick, antagonist series (AID 743412); assay type: functional, cell-based
[21] = MC4R antagonists, dose response, counter-screen for LGR2 antagonist project, cell-based, plate reader, cherry pick (AID 743444); assay type: functional;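 note: transfected HEK 293 cells stimulated with alpha-MSH peptide; potency of inhibitors of the alpha-MSH evoked signal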

| SMILES | IC50 [12] | IC50 [13] | IC50 [14] | IC50 [15] | IC50 [16] | IC50 [17] | IC50 [18] | IC50 [19] | further results |
| --- | --- | --- | --- | --- | --- | --- | --- | --- | --- |
| O=C(O)COc1ccccc1/C=C1\SC(=O)N(Cc2ccc(F)cc2)C1=O | – | – | – | – | – | – | – | – | IC50 (Leucine aminopeptidase): 34.8 µM (active) |
| CCOC(=O)Cc1c(C)nc2c(-c3ccc(Cl)cc3)cnn2c1O | – | – | – | – | – | – | – | – | CC50 [1]: 29 µM (active); CC50 [2]: > 20 µM (active); CC50 [3]: 17.5 µM (active); IC50 (cells): 6.28 µM (active); IC50 (H9c2): > 79 µM (inactive) |
| O=C(O)CCc1nnc(SCC(=O)Nc2ccc(Br)cc2)nc1O | – | – | – | – | – | – | – | – | IC50 (Leucine aminopeptidase): 2.45 µM (active) |
| CCCCCCSc1nc(O)c(C2OC(=O)c3c2ccc(OC)c3OC)c(=O)n1CC (stereo unspecified) | – | – | – | – | – | – | – | – | IC50 (Leucine aminopeptidase): 3 µM (active); IC50 (Genome polyprotein): 56.9 µM (active) |
| CCCCN(C)S(=O)(=O)c1ccc(C(=O)Nc2nnc(-c3ccco3)o2)cc1 | – | – | – | – | – | – | – | – | EC50 [4]: > 160 µM (inconclusive); EC50 [5]: 2.63 µM (active); CC50 [6]: 11.6 µM (active); CC50 [1]: 10.5 µM (active); CC50 [2]: 12.5 µM (active); CC50 [3]: 6.27 µM (active); IC50 (cells): 6.64 µM (active) |
| COCCOC(=O)c1c(C)oc2ccc(NS(=O)(=O)c3ccc(C(=O)O)cc3)cc12 | – | – | – | – | – | – | – | – | IC50 (Estrogen receptor beta [7]): 3.82 µM (not active) |
| CCN(CC)CCNc1nc(SC)nc2sc3c(c12)CCN(C)C3 | – | – | – | – | – | – | – | – | AC50 [8]: 95.3 µM (active); AC50 [9]: 5.18 µM (active); AC50 [10]: > 20 µM (inactive) |
| Cc1cc(C)c(C(=O)COc2cccnc2[N+](=O)[O-])cc1C | – | – | – | – | – | – | – | – | IC50 (Estrogen receptor beta [11]): 7.21 µM (active); IC50 (Estrogen receptor beta [7]): > 50 µM (not active) |
| COC(=O)C1=C(C)NC(C)=C(C(=O)O[C@@H]2CCCN(Cc3ccccc3)C2)[C@@H]1c1cccc([N+](=O)[O-])c1 | > 20 µM (inactive) | 8.05 µM (inactive) | 4.28 µM (active) | 5.76 µM (inactive) | 19.5 µM (inactive) | 5.27 µM (inactive) | 7.96 µM (inactive) | 5.31 µM (inactive) | – |
| O=C(Cc1ccncc1)NCC[C@H]1CC[C@H](NC(=O)C2CCCC2)[C@H](CO)O1 | – | – | – | – | – | – | – | – | AC50 [20]: > 52 µM (inactive); AC50 [21]: 42.1 µM (active) |
| CC1(C)[C@H](C=C(Cl)Cl)[C@@H]1C(=O)OCc1c(F)c(F)cc(F)c1F | > 20 µM (inactive) | > 20 µM (inactive) | > 20 µM (inactive) | > 20 µM (inactive) | > 20 µM (inactive) | > 20 µM (inactive) | > 20 µM (inactive) | > 20 µM (inactive) | – |
| CCCCC[C@@H](O)CC[C@H]1[C@@H]2Cc3cccc(OCC(=O)O)c3C[C@@H]2C[C@@H]1O | > 20 µM (inactive) | > 20 µM (inactive) | > 20 µM (inactive) | > 20 µM (inactive) | > 20 µM (inactive) | > 20 µM (inactive) | > 20 µM (inactive) | > 20 µM (inactive) | – |
| CCCCN1CCCC1C(=O)Nc1c(C)cc(C)cc1C (stereo unspecified) [BUMECAINE] | > 20 µM (inactive) | > 20 µM (inactive) | > 20 µM (inactive) | > 20 µM (inactive) | > 20 µM (inactive) | > 20 µM (inactive) | > 20 µM (inactive) | > 20 µM (inactive) | – |
